Here are results for 2 compounds from paper PMC5392048 (Journal of Central Nervous System Disease, 2017).

pKi: −log10 of the molar value.

Series [1] relates to OATP1B1. Conditions: read-out: Ki for the uptake transporters (OATP1B1); cited from earlier work.
The nature of series [2]: Unbound plasma concentration-time profile of the inhibitors in rats. The series is classed as in vivo, rat.
For series [3], the system named is P-gp. Conditions: read-out: inhibitory concentration (Ki) for P-gp; cited from earlier work.

Turning to `CO[C@H]1/C=C/O[C@@]2(C)Oc3c(C)c(O)c4c(O)c(c(/C=N/N5CCN(C)CC5)c(O)c4c3C2=O)NC(=O)/C(C)=C\C=C\[C@H](C)[C@H](O)[C@@H](C)[C@@H](O)[C@@H](C)[C@H](OC(C)=O)[C@@H]1C` [rifampicin], in series [1], the pKi is 5.96. In series [2] (rifampicin 30 mg/kg oral, rat), the “maximum unbound concentration in plasma” value is reported as 1.8 µM.
Take `COc1cc2c(cc1OC)CN(CCc1ccc(NC(=O)c3cccc4c(=O)c5cccc(OC)c5[nH]c34)cc1)CC2` [elacridar]: in series [3], the pKi is […]. Moreover, the “time unbound plasma level maintained above Ki (Iu/Ki > 1)” value in series [2] (elacridar 5 mg/kg iv, rat plasma, Ki for P-gp) is listed as ~ 15 hours. The “unbound peak plasma concentration relative to Ki for P-gp” value in series [2] (elacridar 5 mg/kg iv, rat plasma, peak concentration) is […].
